Source: PubChem BioAssay AID2060895 (Molecular Pharmacology Branch, DTP, NCI, 2025)

System: PDC 899932-113-R3-J6 complex spheroid viability
Assay: Anticancer human tumor 899932-113-R3-J6-PDC patient-derived melanoma cell line growth inhibition [RAS]
Conditions: for viability, T/C: stronger effect = lower value
Outline: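 Agents were tested in combination matrices in half-log decrements from a top concentration at or near clinical Cmax (10 microM if undetermined). Targets were multi-cell spheroids of tumour lines plus HUVEC and MSC stromal cells.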

[1] = curve of first compound, second compound 0.000949 µM
[2] = curve of first compound, second compound 0.003 µM
[3] = curve of first compound, second compound 0.00949 µM
[4] = curve of first compound, second compound 0.03 µM
[5] = curve of first compound, second compound 0.0949 µM
[6] = curve of first compound, second compound 0.3 µM
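Throughout, for viability, T/C: spheroids exposed to agents for seven days before readout; 100% = DMSO vehicle control wells.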

`CC1(C)CCC(Nc2ncc(C(F)(F)F)c(-c3c[nH]c4c(P(C)(C)=O)c(C#N)ccc34)n2)CN1` (stereo unspecified) + CCn1c(-c2cc(N3CCN(C)CC3)cnc2C(C)OC)c2c3cc(ccc31)-c1csc(n1)CC(NC(=O)C1CC1C)C(=O)N1CCCC(N1)C(=O)OCC(C)(C)C2 was tested. Which IC50 [1] did it give?
Its IC50 is 0.00334 µM.

And the IC50 [2]?
Its IC50 is under 0.000949 µM.

What about the IC50 [3] of the same molecule?
Its IC50 is under 0.000949 µM.

And the IC50 [4]?
The IC50 was under 0.000949 µM.

What about the IC50 [5] of the same molecule?
Its IC50 is under 0.000949 µM.

And the IC50 [6]?
Its IC50 is under 0.000949 µM.

What about the viability, T/C (second compound 0.000949 µM, first compound 0.000949 µM) of the same molecule?
The viability, T/C was 64.6%.

What about the viability, T/C (second compound 0.000949 µM, first compound 0.003 µM) of the same molecule?
The viability, T/C was 51.2%.

What about the viability, T/C (second compound 0.000949 µM, first compound 0.00949 µM) of the same molecule?
Its viability, T/C is 37.5%.

What about the viability, T/C (second compound 0.000949 µM, first compound 0.03 µM) of the same molecule?
Its viability, T/C is 26.1%.

What about the viability, T/C (second compound 0.000949 µM, first compound 0.0949 µM) of the same molecule?
Its viability, T/C is 15.4%.

And the viability, T/C (second compound 0.000949 µM, first compound 0.3 µM)?
Its viability, T/C is 9.12%.

What about the viability, T/C (second compound 0.003 µM, first compound 0.000949 µM) of the same molecule?
Its viability, T/C is 35%.

What about the viability, T/C (second compound 0.003 µM, first compound 0.003 µM) of the same molecule?
Its viability, T/C is 27.6%.

And the viability, T/C (second compound 0.003 µM, first compound 0.00949 µM)?
Its viability, T/C is 21.9%.

What about the viability, T/C (second compound 0.003 µM, first compound 0.03 µM) of the same molecule?
The viability, T/C was 14.6%.

And the viability, T/C (second compound 0.003 µM, first compound 0.0949 µM)?
The viability, T/C was 13.2%.

And the viability, T/C (second compound 0.003 µM, first compound 0.3 µM)?
The viability, T/C was 7.92%.

And the viability, T/C (second compound 0.00949 µM, first compound 0.000949 µM)?
The viability, T/C was 3.56%.

What about the viability, T/C (second compound 0.00949 µM, first compound 0.003 µM) of the same molecule?
Its viability, T/C is 4.08%.

What about the viability, T/C (second compound 0.00949 µM, first compound 0.00949 µM) of the same molecule?
The viability, T/C was 4.01%.

What about the viability, T/C (second compound 0.00949 µM, first compound 0.03 µM) of the same molecule?
Its viability, T/C is 4.17%.

What about the viability, T/C (second compound 0.00949 µM, first compound 0.0949 µM) of the same molecule?
The viability, T/C was 5.08%.

What about the viability, T/C (second compound 0.00949 µM, first compound 0.3 µM) of the same molecule?
The viability, T/C was 5.25%.

And the viability, T/C (second compound 0.03 µM, first compound 0.000949 µM)?
The viability, T/C was 2.41%.

And the viability, T/C (second compound 0.03 µM, first compound 0.003 µM)?
Its viability, T/C is 2.78%.

And the viability, T/C (second compound 0.03 µM, first compound 0.00949 µM)?
Its viability, T/C is 2.34%.

What about the viability, T/C (second compound 0.03 µM, first compound 0.03 µM) of the same molecule?
Its viability, T/C is 2.28%.

And the viability, T/C (second compound 0.03 µM, first compound 0.0949 µM)?
The viability, T/C was 2.45%.

What about the viability, T/C (second compound 0.03 µM, first compound 0.3 µM) of the same molecule?
Its viability, T/C is 2.64%.

What about the viability, T/C (second compound 0.0949 µM, first compound 0.000949 µM) of the same molecule?
The viability, T/C was 2.17%.

What about the viability, T/C (second compound 0.0949 µM, first compound 0.003 µM) of the same molecule?
Its viability, T/C is 2.21%.

What about the viability, T/C (second compound 0.0949 µM, first compound 0.00949 µM) of the same molecule?
The viability, T/C was 2.67%.

And the viability, T/C (second compound 0.0949 µM, first compound 0.03 µM)?
The viability, T/C was 2.13%.

What about the viability, T/C (second compound 0.0949 µM, first compound 0.0949 µM) of the same molecule?
Its viability, T/C is 1.61%.

What about the viability, T/C (second compound 0.0949 µM, first compound 0.3 µM) of the same molecule?
Its viability, T/C is 2.1%.

What about the viability, T/C (second compound 0.3 µM, first compound 0.000949 µM) of the same molecule?
The viability, T/C was 2.15%.

What about the viability, T/C (second compound 0.3 µM, first compound 0.003 µM) of the same molecule?
Its viability, T/C is 1.93%.

What about the viability, T/C (second compound 0.3 µM, first compound 0.00949 µM) of the same molecule?
Its viability, T/C is 1.68%.

And the viability, T/C (second compound 0.3 µM, first compound 0.03 µM)?
Its viability, T/C is 1.68%.

What about the viability, T/C (second compound 0.3 µM, first compound 0.0949 µM) of the same molecule?
The viability, T/C was 1.86%.

What about the viability, T/C (second compound 0.3 µM, first compound 0.3 µM) of the same molecule?
Its viability, T/C is 1.52%.

Which results are given for `CC(=O)OC12COC1CC(O)C1(C)C(=O)C(O)C3=C(C)C(OC(=O)C(O)C(NC(=O)OC(C)(C)C)c4ccccc4)CC(O)(C(OC(=O)c4ccccc4)C21)C3(C)C` (stereo unspecified) + CCn1c(-c2cccnc2C(C)OC)c2c3cc(ccc31)N1CCOC(CC(NC(=O)C(C(C)C)N(C)C(=O)C3(F)CCN(C(=O)C#CC(C)(C)N(C)C)CC3)C(=O)N3CCCC(N3)C(=O)OCC(C)(C)C2)C1?
IC50 [1]: < 0.0316 µM; IC50 [2]: < 0.0316 µM; IC50 [3]: < 0.0316 µM; IC50 [4]: < 0.0316 µM; IC50 [5]: < 0.0316 µM; IC50 [6]: < 0.0316 µM; viability, T/C (second compound 0.000949 µM, first compound 0.0316 µM): 31.4%; viability, T/C (second compound 0.000949 µM, first compound 0.1 µM): 34.3%; viability, T/C (second compound 0.000949 µM, first compound 0.316 µM): 33%; viability, T/C (second compound 0.000949 µM, first compound 1 µM): 45.6%; viability, T/C (second compound 0.000949 µM, first compound 3.16 µM): 60.8%; viability, T/C (second compound 0.000949 µM, first compound 10 µM): 70.1%; viability, T/C (second compound 0.003 µM, first compound 0.0316 µM): 29.2%; viability, T/C (second compound 0.003 µM, first compound 0.1 µM): 37.1%; viability, T/C (second compound 0.003 µM, first compound 0.316 µM): 36.8%; viability, T/C (second compound 0.003 µM, first compound 1 µM): 39.7%; viability, T/C (second compound 0.003 µM, first compound 3.16 µM): 58.7%; viability, T/C (second compound 0.003 µM, first compound 10 µM): 68.9%; viability, T/C (second compound 0.00949 µM, first compound 0.0316 µM): 33.8%; viability, T/C (second compound 0.00949 µM, first compound 0.1 µM): 36.6%; viability, T/C (second compound 0.00949 µM, first compound 0.316 µM): 35.1%; viability, T/C (second compound 0.00949 µM, first compound 1 µM): 48.4%; viability, T/C (second compound 0.00949 µM, first compound 3.16 µM): 61%; viability, T/C (second compound 0.00949 µM, first compound 10 µM): 61%; viability, T/C (second compound 0.03 µM, first compound 0.0316 µM): 34.9%; viability, T/C (second compound 0.03 µM, first compound 0.1 µM): 38%; viability, T/C (second compound 0.03 µM, first compound 0.316 µM): 32.9%; viability, T/C (second compound 0.03 µM, first compound 1 µM): 41.7%; viability, T/C (second compound 0.03 µM, first compound 3.16 µM): 67.3%; viability, T/C (second compound 0.03 µM, first compound 10 µM): 67.4%; viability, T/C (second compound 0.0949 µM, first compound 0.0316 µM): 34.8%; viability, T/C (second compound 0.0949 µM, first compound 0.1 µM): 38.4%; viability, T/C (second compound 0.0949 µM, first compound 0.316 µM): 37.3%; viability, T/C (second compound 0.0949 µM, first compound 1 µM): 52.1%; viability, T/C (second compound 0.0949 µM, first compound 3.16 µM): 59.2%; viability, T/C (second compound 0.0949 µM, first compound 10 µM): 65.5%; viability, T/C (second compound 0.3 µM, first compound 0.0316 µM): 28.9%; viability, T/C (second compound 0.3 µM, first compound 0.1 µM): 39.4%; viability, T/C (second compound 0.3 µM, first compound 0.316 µM): 40.8%; viability, T/C (second compound 0.3 µM, first compound 1 µM): 44.5%; viability, T/C (second compound 0.3 µM, first compound 3.16 µM): 64.3%; viability, T/C (second compound 0.3 µM, first compound 10 µM): 63.1%

For `C#Cc1c(F)ccc2cc(O)cc(-c3ncc4c(N5CC6CCC(C5)N6)nc(OCC56CCCN5CC(F)C6)nc4c3F)c12` (stereo unspecified), which viability, T/C (compound 0.0316 µM) is on record?
Its viability, T/C is 108% [middle of 8 runs].

What about the viability, T/C (compound 0.1 µM) of the same molecule?
The viability, T/C was 109% [middle of 8 runs].

What about the viability, T/C (compound 0.316 µM) of the same molecule?
The viability, T/C was 107% [middle of 8 runs].

And the viability, T/C (compound 1 µM)?
The viability, T/C was 112% [middle of 8 runs].

And the viability, T/C (compound 3.16 µM)?
The viability, T/C was 111% [middle of 8 runs].

What about the viability, T/C (compound 10 µM) of the same molecule?
Its viability, T/C is 110% [middle of 8 runs].

What about the IC50 (compound alone, run of 09/09/2024) of the same molecule?
Its IC50 is over 10 µM.
